Measurements reported in patent publication US20110190321A1, “[…] FOR EGFR INHIBITOR TREATMENT” (priority 2007, published 2011).

Key:
[1] = test system: patients with advanced NSCLC following failure of at least one prior chemotherapy regimen; test: Open-label predictive marker identification Phase II study of Tarceva monotherapy 150 mg/day; RECIST response and survival; format: in vivo, human; details: 102 patients with evaluable microarray data
Description: The selection of this dose was based on pharmacokinetic parameters, as well as the safety and tolerability profile of this dose observed in Phase I, II and III trials in heavily pre-treated patients with advanced cancer. Drug levels seen in the plasma of patients with cancer receiving the 150 mg/day dose were consistently above the average plasma concentration of 500 ng/ml targeted for clinical efficacy.
This was an open-label, predictive marker identification Phase II study. The study was conducted in approximately 26 sites in about 12 countries. 264 patients with advanced NSCLC following failure of at least one prior chemotherapy regimen were enrolled over a 12 month period. […] Dose reductions were permitted based on tolerability to drug therapy. Clinical and laboratory parameters were assessed to evaluate disease control and toxicity. Treatment continued until disease progression, unacceptable toxicity or death. The study design is depicted in FIG. 1.
The RECIST (Uni-dimensional Tumour Measurement) criteria were used to evaluate response. These criteria can be found under the following link: […]
A regular status check every 3 months was performed either by a patient's visit to the clinic or by telephone. All deaths were recorded. […]

[2] = patients with cancer, 150 mg/day dose; 500 ng/ml is the average concentration targeted for clinical efficacy; cited from earlier work
[3] = test system: NSCLC patients for whom standard therapy for advanced disease has failed; details: single agent versus placebo, BR.21; cited from earlier work

With `C#Cc1cccc(Nc2ncnc3cc(OCCOC)c(OCCOC)cc23)c1` [Erlotinib, erlotinib] as the molecule, how does the “Best Response PD” value [1] read?
Its value is “(48.0%)”.

What about the “Best Response PR” value [1] of the same molecule?
Its value is “(5.9%)”.

And the “Drug levels in plasma” value [2]?
The value was over 500 ng/mL.

What about the “survival of NSCLC patients” value [3] of the same molecule?
The value was “significantly prolongs and improves the survival”.
